Test systems include DMS 114 small cell lung; DMS 273 small cell lung; HS 578T breast; KM20L2 colon; LXFL 529 NSCLC; M19-MEL melanoma; MDA-N; XF 498 CNS; RXF-631 renal.
Common to all, as to assay: NCI-60 cell line screen, 48 h

These results are taken from PubChem BioAssay (NCI).

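Assay format: 96-well plates, 48-hour exposure. The concentration for full growth arrest is given as TGI.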

Regarding `Cc1c(N)nc(C2CC(=O)N2CC(N)C(N)=O)nc1C(=O)NC(C(=O)NC(C)C(O)C(C)C(=O)NC(C(=O)NCCc1nc(-c2nc(C(=O)NCCNCC(C)O)cs2)cs1)C(C)O)C(OC1OC(CO)C(O)C(O)C1OC1OC(CO)C(O)C(OC(N)=O)C1O)c1cnc[nH]1` (stereo unspecified), the TGI was 4.47 µM in the experiment on DMS 114 small cell lung; 12 µM in the experiment with DMS 273 small cell lung; 50 µM with HS 578T breast; over 100 µM in the experiment on KM20L2 colon; over 100 µM in the experiment on LXFL 529 NSCLC; over 57.6 µM with M19-MEL melanoma. The values for the TGI in the experiment with MDA-N and in the experiment with XF 498 CNS were over 50 µM and over 22.4 µM, respectively.
As for `NC1=NN(c2ccccc2)C(=O)C1/C(=N\NC(=O)c1cc2ccccc2cc1O)C(=O)Nc1ccc(Cl)cc1` (stereo unspecified), the TGI in the experiment with DMS 114 small cell lung was 56.7 µM; in the experiment with DMS 273 small cell lung, over 100 µM; in the experiment with KM20L2 colon, over 100 µM; in the experiment on LXFL 529 NSCLC, over 100 µM; with M19-MEL melanoma, 89.6 µM; with RXF-631 renal, over 100 µM. Besides, the TGI in the experiment with XF 498 CNS was over 100 µM.
Regarding `Cn1nc(-c2ccccc2)c(C(=O)/C=C/c2ccccc2)c(N2CCCC2)c1=O`, the TGI in the experiment with DMS 114 small cell lung was 34.2 µM; with DMS 273 small cell lung it was 93.1 µM; in the experiment on KM20L2 colon it was 33.4 µM; in the experiment on LXFL 529 NSCLC, 34.4 µM; in the experiment with M19-MEL melanoma it was 37.3 µM; in the experiment on RXF-631 renal, over 100 µM. Further, the TGI in the experiment with XF 498 CNS was determined as 39.9 µM.
For the compound `CC1CC2C(=O)N(c3ccccc3)C(=O)C2c2[nH]c3ccccc3c21` (stereo unspecified), the TGI in the experiment with DMS 114 small cell lung, in the experiment on DMS 273 small cell lung, in the experiment on LXFL 529 NSCLC, in the experiment with M19-MEL melanoma and in the experiment on RXF-631 renal was over 100 µM each time.
Regarding `NC1CC(n2ccc(=O)[nH]c2=O)OC1C(O)CO` (stereo unspecified), the TGI in the experiment with DMS 114 small cell lung, in the experiment with DMS 273 small cell lung, with KM20L2 colon, with LXFL 529 NSCLC, with M19-MEL melanoma and with RXF-631 renal was over 100 µM throughout. For the same compound, the TGI in the experiment on XF 498 CNS is over 100 µM.
For the compound `O=C1COc2cc3c(cc2N1)SCC(=O)N3`, the TGI in the experiment on DMS 114 small cell lung, with DMS 273 small cell lung, with LXFL 529 NSCLC, with M19-MEL melanoma, with RXF-631 renal and in the experiment on XF 498 CNS was over 100 µM in each case.
Take `NC(=O)NC(=O)C1CCC(=O)N1S(=O)(=O)c1ccc(Cl)cc1` (stereo unspecified): the TGI in the experiment with DMS 114 small cell lung, in the experiment on KM20L2 colon, in the experiment on LXFL 529 NSCLC, in the experiment on M19-MEL melanoma, in the experiment with RXF-631 renal and in the experiment on XF 498 CNS was over 100 µM throughout.
Take `COC(=O)N/N=C(\c1nc2ccc(Cl)cc2[nH]c1=O)C(O)c1ccc([N+](=O)[O-])cc1` (stereo unspecified): the TGI in the experiment with DMS 114 small cell lung, in the experiment on DMS 273 small cell lung, in the experiment with KM20L2 colon, with LXFL 529 NSCLC, in the experiment on M19-MEL melanoma and in the experiment on RXF-631 renal was over 100 µM throughout.
Turning to `CCCCCCCCCCCCCCCC(=O)NCC(OCC)OCC`, the TGI with DMS 114 small cell lung, with DMS 273 small cell lung, with KM20L2 colon, with LXFL 529 NSCLC, with M19-MEL melanoma and with RXF-631 renal was over 100 µM throughout. Further, the TGI in the experiment with XF 498 CNS is over 100 µM.
`Nc1nc(N)c(-c2ccccc2)c(C(=O)Nc2nccs2)n1`: the TGI with DMS 114 small cell lung, in the experiment with KM20L2 colon, in the experiment with LXFL 529 NSCLC, with M19-MEL melanoma and with RXF-631 renal was over 100 µM each time.
In the case of `CCOC(=O)NC/C=C/CO`, the TGI with DMS 114 small cell lung, in the experiment with DMS 273 small cell lung, with KM20L2 colon, in the experiment on LXFL 529 NSCLC, in the experiment with M19-MEL melanoma and in the experiment on RXF-631 renal was over 100 µM in each case.
`CCOC(=O)/C(=C/c1ccc[nH]1)P(=O)(OCC)OCC`: the TGI in the experiment with DMS 114 small cell lung, in the experiment with DMS 273 small cell lung, with KM20L2 colon, in the experiment on LXFL 529 NSCLC, in the experiment on M19-MEL melanoma and in the experiment with RXF-631 renal was over 100 µM each time. In the experiment on XF 498 CNS, the TGI was over 100 µM.
On to `CCOC(=O)c1c(/C=N\Nc2ccccc2)nc2ccccc2c1-c1ccccc1`, for which the TGI in the experiment with DMS 114 small cell lung was 98.1 µM; in the experiment on DMS 273 small cell lung, over 100 µM; with KM20L2 colon it was over 100 µM; with LXFL 529 NSCLC, over 100 µM; with M19-MEL melanoma, 60.7 µM; in the experiment with RXF-631 renal it was over 100 µM.
Consider `Cc1c(C(=O)C/C(=N/NC(=O)CC#N)C(N)=O)[n+](=O)c2ccccc2n1[O-]`, for which the TGI in the experiment on DMS 114 small cell lung was 57.8 µM; with DMS 273 small cell lung it was over 100 µM; with KM20L2 colon, over 100 µM; in the experiment with LXFL 529 NSCLC, over 100 µM; with M19-MEL melanoma it was 50.7 µM; with RXF-631 renal, over 100 µM. The TGI in the experiment on XF 498 CNS is over 100 µM.
In the case of `Nc1ccc2ncc(Nc3ccc(Cl)c(Cl)c3)nc2c1`, the TGI was 42.1 µM in the experiment with DMS 114 small cell lung; 49.5 µM with DMS 273 small cell lung; over 100 µM in the experiment with KM20L2 colon; over 100 µM with LXFL 529 NSCLC; 47.4 µM in the experiment on M19-MEL melanoma; 60.8 µM in the experiment with XF 498 CNS.
